A word on the pIC50: it is −log10 of the IC50, conventionally taken in molar units. A lower pIC50 goes with a high IC50. The term Cmax denotes the maximum level reached in the sampled fluid or tissue. Broadly, the ED50 is the dose that gives a 50% effect, or the effect in half of the subjects.

pIC50: −log10 of the molar value.

For series [1], the target named is T1, Prostaglandin G/H synthase 1 (Rattus norvegicus, UniProt Q63921).
T1 sequence (Q63921 whole entry): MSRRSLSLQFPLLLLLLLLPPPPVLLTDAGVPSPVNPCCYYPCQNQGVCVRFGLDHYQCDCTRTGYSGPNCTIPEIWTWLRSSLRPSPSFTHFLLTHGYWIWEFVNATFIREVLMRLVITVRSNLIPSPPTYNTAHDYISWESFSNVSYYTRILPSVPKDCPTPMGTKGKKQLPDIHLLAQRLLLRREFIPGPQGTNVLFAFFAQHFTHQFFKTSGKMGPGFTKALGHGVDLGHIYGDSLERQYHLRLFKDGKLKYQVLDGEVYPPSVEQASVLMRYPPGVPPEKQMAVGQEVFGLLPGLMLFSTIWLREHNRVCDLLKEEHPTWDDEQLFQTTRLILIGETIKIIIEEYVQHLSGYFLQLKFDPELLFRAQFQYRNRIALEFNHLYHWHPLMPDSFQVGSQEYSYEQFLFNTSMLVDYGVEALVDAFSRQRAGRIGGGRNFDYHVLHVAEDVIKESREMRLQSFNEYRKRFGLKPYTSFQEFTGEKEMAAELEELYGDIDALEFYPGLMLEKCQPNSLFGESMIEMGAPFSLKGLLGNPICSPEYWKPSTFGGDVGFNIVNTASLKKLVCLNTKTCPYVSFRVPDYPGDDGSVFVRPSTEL
Briefly: In vitro inhibition of Prostaglandin G/H synthase 1.

Series [2] concerns the target T2, Prostaglandin G/H synthase 2 (Rattus norvegicus, UniProt P35355).
T2 sequence (P35355 whole entry): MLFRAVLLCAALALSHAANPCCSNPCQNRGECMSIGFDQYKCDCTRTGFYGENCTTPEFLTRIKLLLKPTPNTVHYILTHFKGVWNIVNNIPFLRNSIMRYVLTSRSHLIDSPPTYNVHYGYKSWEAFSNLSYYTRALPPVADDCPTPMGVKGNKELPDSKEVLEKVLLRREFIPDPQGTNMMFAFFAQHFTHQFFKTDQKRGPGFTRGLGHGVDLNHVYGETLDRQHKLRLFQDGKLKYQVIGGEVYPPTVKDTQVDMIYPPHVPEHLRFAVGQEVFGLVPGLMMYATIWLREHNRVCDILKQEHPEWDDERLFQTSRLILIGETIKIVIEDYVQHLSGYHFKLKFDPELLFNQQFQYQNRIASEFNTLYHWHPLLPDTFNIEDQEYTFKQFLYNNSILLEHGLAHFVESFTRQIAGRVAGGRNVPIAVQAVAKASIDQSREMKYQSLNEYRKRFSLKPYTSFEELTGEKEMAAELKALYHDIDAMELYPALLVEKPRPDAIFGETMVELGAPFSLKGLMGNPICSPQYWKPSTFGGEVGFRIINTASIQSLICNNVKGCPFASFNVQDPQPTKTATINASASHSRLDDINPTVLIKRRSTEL
Briefly: In vitro inhibition of Prostaglandin G/H synthase 2.

The test system of series [3] is Rattus norvegicus. Briefly: Compound was evaluated in vivo for its activity in the rat paw edema assay. Format: functional.
The species named for series [4] is Rattus norvegicus. In words: Clearance in rat plasma. Format: functional, organism-based.
Series [5] can be described thus: Cmax in rat plasma. Format: ADME, organism-based.
For series [6], the system named is Rattus norvegicus. Briefly: Compound was evaluated in vivo for its activity in the rat pyresis assay. Format: functional.

Consider `COc1ccc2c(c1)c(CC(C)CC(=O)O)c(C)n2Cc1ccc(Br)cc1` (configuration not stated), for which the pIC50 is less than 5.00 in series [1] and 7.30 in series [2]. In the series with Rattus norvegicus [3], the ED30 stood at 0.4 mg/kg. Moreover, the CL (mL.min-1.kg-1) in the series filed under Rattus norvegicus [4] is 5.7.
`COc1ccc2c(c1)c(C[C@@H](C)CC(=O)O)c(C)n2Cc1ccc(Br)cc1` came in with a peak concentration (Cmax) in series [5] of 24.3 µM. Moreover, the results for the pIC50 in series [1] and in series [2] were less than 5.00 and 7.22, respectively. Besides, in the series on Rattus norvegicus [3], the ED30 was determined as 0.4 mg/kg. Moreover, in the series filed under Rattus norvegicus [4], the CL (mL.min-1.kg-1) was found to be 2.8. The compound further showed a median effective dose (ED50) with Rattus norvegicus [6] of 1.9 mg/kg.
The compound `COc1ccc2c(c1)c(CC(=O)O)c(C)n2C(=O)c1ccc(Cl)cc1` [INDOMETHACIN] registered an ED30 in the series on Rattus norvegicus [3] of 0.4 mg/kg. In the series with Rattus norvegicus [6], this compound had an ED50 of 1 mg/kg.
With `COc1ccc2c(c1)c(C[C@H](C)CC(=O)O)c(C)n2Cc1ccc(Br)cc1`, in series [5], the Cmax was 14.4 µM. Moreover, the pIC50 is less than 5.00 in series [1] and 7.70 in series [2]. For the same compound, in the series with Rattus norvegicus [3], the ED30 is greater than 3 mg/kg. For the same compound, the CL (mL.min-1.kg-1) in the series filed under Rattus norvegicus [4] worked out at 21.

For the origin of these results see ChEMBL document CHEMBL1129002, “Synthesis and biological evaluation of both enantiomers of L-761,000 as inhibitors of cyclooxygenase 1 and 2” (Bioorg Med Chem Lett, 1996).
